# In patent US9808530B2, “Composition of tiacumicin compounds” (Astellas Pharma Europe Ltd., priority 2013, dated 2017):
# Columns and labels:
# [1] = Foaming property of fidaxomicin suspensions in water (tube shaken, foaming checked); assay type: physicochemical; conditions: 400 mg fidaxomicin in 10 mL distilled water; immediately after preparation and 1 hour after preparation
# Procedure: To 400 mg of fidaxomicin was added 10 mL of distilled water in a tube. The mixture was shaken and allowed to stand.
# Hydroxypropylcellulose (HPC-L (middle viscosity grade) and HPC-SSL (low viscosity grade) respectively), in a concentration of 0.3 and 0.6 w/v % respectively, was added to 5 mL of distilled water in a tube which contained 0 and 200 mg respectively of fidaxomicin. Each mixture was shaken and allowed to stand.
# Xanthan gum in a concentration of 0.2% w/v was added to 5 mL of distilled water in a tube, which contained 0 and 200 mg respectively of fidaxomicin. Each mixture was shaken and allowed to stand.
# An amount of the granulate corresponding to 200 mg fidaxomicin was weighed into a tube and 5 ml, of water was added. The tube was vigorously shaken for about 1 min. Foaming of the suspension was not observed.
# An amount of each of the granulates OS-5-OS-9, corresponding to 200 mg fidaxomicin, was weighed into a tube and 5 mL of water was added. Further, suspensions OS-10 and OS-11 were prepared by addition of 2.5 mg and 5.0 mg respectively of xanthan gum to a suspension with composition OS-5. Each tube was vigorously shaken for about 1 min. In none of the suspensions foaming was observed.
# Each of the granulate compositions OS-1, OS-2 and OS-3 was weighed into a tube, water was added and the tubes were vigorously shaken for about 1 minute. […]
# [2] = low solubility, low permeability; cited from earlier work
# [3] = Storage stability of fidaxomicin with a sugar in a ratio of 1:9; assay type: physicochemical; conditions: glass bottle
# Procedure: Fidaxomicin and a sugar, selected from the group consisting of D-mannitol, erythritol, isomalt and trehalose, in a ratio of 1:9, were transferred into a glass bottle and stored at 5° C. during 10 days, 70° C. during 9 days and 40° C./75% RH during 1 month, respectively. In the presence of each sugar the degradation of fidaxomicin increased when stored at 70° C. during 9 days. […] (see Table 7).
# [4] = oral administration; cited from earlier work
structure (smiles),measurement,setting,value
"CCc1c(Cl)c(O)c(Cl)c(O)c1C(=O)O[C@H]1[C@H](O)[C@H](OC)[C@H](OC/C2=C\C=C\C[C@H](O)/C(C)=C/[C@H](CC)[C@@H](O[C@@H]3OC(C)(C)[C@@H](OC(=O)C(C)C)[C@H](O)[C@@H]3O)/C(C)=C/C(C)=C/C[C@@H]([C@@H](C)O)OC2=O)O[C@@H]1C [fidaxomicin, 3-[[[6-deoxy-4-O-(3,5-dichloro-2-ethyl-4,6-dihydroxybenzoyl)-2-O-methyl-β-D-mannopyranosyl]oxy]methyl]-12(R)-[[6-deoxy-5-C-methyl-4-O-(2-methyl-1-oxopropyl)-β-D-lyxo-hexopyranosyl]oxy]-11(S)-ethyl-8(S)-hydroxy-18(S)-(1(R)-hydroxyethyl)-9,13,15-trimethyloxacyclooctadeca-3,5,9,13,15-pentaen-2-one]",foaming property on contact with water,[1],intrinsically foaming property
same,BCS class,[2],BCS Class IV
same,Total related substances (%),[3]; 5° C./10 days,1.91%
same,Total related substances (%),[3]; 70° C./9 days,5.10%
same,absorption from the intestinal tract,[4],poorly absorbed
